The nature of test [1]: viability of PTEN-deleted HCT116 cells – cell-based, HCT116 PTEN knockout, dose response (AID 1047).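 Further: HCT116 colon tumor cells with PTEN knocked out; cells exposed to compound for 60 hours before readout.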 It is filed as functional.
Test [2] in a line: viability of HCT116 lacking mutant beta-catenin – cell-based, human colon tumor, dose response (AID 1045).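 Further: HCT116 colon tumor cells with beta catenin knocked out; cells exposed to compound for 60 hours.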 It is filed as functional.
The target of test [3] is DNA damage-inducible transcript 3 protein (Mus musculus, UniProt P35639). It is filed as functional, Cricetulus griseus.
Another test relates to CHO. Put plainly: CHO cell viability loss, potency – luminescence, cytotoxicity control for TLR9-MyD88 binding inhibitor project, dose response (AID 588339).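 Further: CHO cells stably coexpressing TLR9 and MyD88 fusions from primary screen; compound exposure lasted 48 hours before viability readout.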 The format is functional, cell-based, hamster. The conditions noted are these: Cricetulus griseus.
A further test addresses Beta Lactamase (Pseudomonas aeruginosa, UniProt Q932Y6). Kind of test: BLA reporter interference, concentration series – BLA reporter cells, FRET fluorescence, artefact control for TLR9-MyD88 binding inhibitor project, dose response (AID 588341).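 Further: cell based assay in CHO-K1 cells stably expressing beta-lactamase.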 The format is cell-based.
The test system of a further test is INS1. Kind of test: INS-1E survival protection against cytokine death – cell-based, luminescence, retest, dose response (AID 449756).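 Further: cell death triggered by IL-1 beta plus TNF-alpha plus IFN-gamma mixture; protective hits raise ATP signal compared with cytokine alone wells.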 The note with it: Rattus norvegicus. It is filed as functional.
Another test deals with HeLa. Kind of test: viability loss in HeLa cells – cell-based, 24 h, cherry-picked samples, cytotoxicity control, dose response (AID 504726). The format is functional. The note with it: Homo sapiens.
A further test has as its target ORF 73 (Human herpesvirus 8, UniProt O40947). Put plainly: KSHV LANA DNA-binding disruption – biochemical, fluorescence polarization, cherry-picked samples, dose response (AID 504725).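 Further: fluorescence polarization of a labeled DNA duplex reporting LANA DNA binding; potency is for inhibitors that block LANA binding to the DNA.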 The arrangement: species or system Human gammaherpesvirus 8.
Test [4] concerns the target T1, Heat shock factor protein 1 (Mus musculus, UniProt P38532).
T1 sequence (P38532 whole entry): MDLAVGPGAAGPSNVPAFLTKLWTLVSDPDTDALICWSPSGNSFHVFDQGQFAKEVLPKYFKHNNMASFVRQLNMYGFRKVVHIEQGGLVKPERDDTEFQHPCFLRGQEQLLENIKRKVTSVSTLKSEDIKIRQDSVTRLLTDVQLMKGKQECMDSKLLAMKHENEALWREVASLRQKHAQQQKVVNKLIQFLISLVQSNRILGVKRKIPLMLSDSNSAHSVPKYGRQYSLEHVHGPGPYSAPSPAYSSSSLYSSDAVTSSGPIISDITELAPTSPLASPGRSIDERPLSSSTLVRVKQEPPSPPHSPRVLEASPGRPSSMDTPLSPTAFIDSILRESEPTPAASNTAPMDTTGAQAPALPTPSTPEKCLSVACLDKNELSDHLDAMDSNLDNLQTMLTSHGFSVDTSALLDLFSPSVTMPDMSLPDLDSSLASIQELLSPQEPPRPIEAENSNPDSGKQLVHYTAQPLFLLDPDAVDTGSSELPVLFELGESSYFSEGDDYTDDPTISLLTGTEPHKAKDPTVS
Kind of test: enhancement of HSF1-driven luciferase signal – cell-based, NIH3T3, luminescence, dose retest, confirmation (AID 435004).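 Further: stress induced by proteasome inhibitor MG132 added 30 min after compound; luciferase reporter driven by HSF1 response element in NIH3T3 cells; actives raise luminescence as potentiators of the MG132 stress response.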 It is filed as functional.

Test [5] can be described thus: NIH-3T3 fibroblast cytotoxicity, dose response, cytotoxicity control, cell-based, fluorescence, Alamar Blue, secondary assay (AID 2327).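 Further: NIH-3T3 mouse fibroblasts cultured with fluconazole at 8 µg/mL.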 It is filed as functional. Background: Resazurin is reduced to fluorescent resorufin, in cell work by metabolically active cells.
The test system of test [6] is Streptococcus sp. 'group A'. Put plainly: Streptococcus pyogenes SK(-)GAS viability under kanamycin – luminescence, BacTiterGlo, confirmation, counter-screen for streptokinase expression inhibitor project, dose response (AID 1900). It is filed as functional, organism-based. For orientation: A counterscreen serves to expose hits that act by an unwanted route or on another target.

Another test addresses T2, Streptokinase A (Streptococcus pyogenes serotype M1, UniProt P10520).
T2 sequence (P10520 whole entry): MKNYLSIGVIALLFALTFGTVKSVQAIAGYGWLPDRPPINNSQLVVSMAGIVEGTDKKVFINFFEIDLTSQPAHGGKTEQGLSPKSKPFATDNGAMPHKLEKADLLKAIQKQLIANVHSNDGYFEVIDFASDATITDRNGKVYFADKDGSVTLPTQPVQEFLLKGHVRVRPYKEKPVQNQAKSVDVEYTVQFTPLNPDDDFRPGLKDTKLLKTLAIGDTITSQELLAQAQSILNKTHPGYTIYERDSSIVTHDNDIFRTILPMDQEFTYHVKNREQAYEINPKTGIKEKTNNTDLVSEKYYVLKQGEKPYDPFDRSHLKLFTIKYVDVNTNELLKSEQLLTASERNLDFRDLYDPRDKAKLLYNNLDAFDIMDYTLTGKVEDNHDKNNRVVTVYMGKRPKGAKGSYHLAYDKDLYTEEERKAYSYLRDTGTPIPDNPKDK
Put plainly: viability-normalized secreted streptokinase activity reduction – plasminogen activation absorbance, OD405, dose response (AID 1914).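 Further: secreted streptokinase activity via plasminogen activation per viability signal from cell pellet.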 It is filed as functional, Streptococcus pyogenes M1 GAS.

The nature of test [7]: fluconazole-exposed Candida albicans growth modulators – fluorescence, retest, confirmation (AID 2467). It is filed as functional, cell-based.
The next test relates to Streptococcus. Put plainly: GAS UMAA2166 growth inhibition – luminescence, BacTiterGlo, counter-screen for streptokinase expression inhibitor project, dose response (AID 1915).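 Further: potency for reduction of bacterial viability or growth.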 The format is functional, organism-based.
The target of a further test is Beta-galactosidase (Escherichia coli, UniProt Q8VNN2). Put plainly: detection-enzyme interference by beta-gal modulators – biochemical, E. coli enzyme, set 3, artefact control for CCR6 antagonist project, dose response (AID 504712). The format is functional.
The target of test [8] is Nucleotide-binding oligomerization domain-containing protein 2 (Homo sapiens, UniProt Q9HC29). Kind of test: inhibition of NOD2-driven NF-kB reporter – cell-based, luminescence, uHTS, HEK293 (AID 1566). It is filed as functional.
The next test has as its target Tumor necrosis factor (Homo sapiens, UniProt P01375). Put plainly: analog potency on TNFa NF-kB signaling – cell-based, revised, SAR follow-up (AID 2337). The format is functional.
For test [9], the target named is T3, Nucleotide-binding oligomerization domain-containing protein 1 (Homo sapiens, UniProt Q9Y239).
T3 sequence (Q9Y239 whole entry): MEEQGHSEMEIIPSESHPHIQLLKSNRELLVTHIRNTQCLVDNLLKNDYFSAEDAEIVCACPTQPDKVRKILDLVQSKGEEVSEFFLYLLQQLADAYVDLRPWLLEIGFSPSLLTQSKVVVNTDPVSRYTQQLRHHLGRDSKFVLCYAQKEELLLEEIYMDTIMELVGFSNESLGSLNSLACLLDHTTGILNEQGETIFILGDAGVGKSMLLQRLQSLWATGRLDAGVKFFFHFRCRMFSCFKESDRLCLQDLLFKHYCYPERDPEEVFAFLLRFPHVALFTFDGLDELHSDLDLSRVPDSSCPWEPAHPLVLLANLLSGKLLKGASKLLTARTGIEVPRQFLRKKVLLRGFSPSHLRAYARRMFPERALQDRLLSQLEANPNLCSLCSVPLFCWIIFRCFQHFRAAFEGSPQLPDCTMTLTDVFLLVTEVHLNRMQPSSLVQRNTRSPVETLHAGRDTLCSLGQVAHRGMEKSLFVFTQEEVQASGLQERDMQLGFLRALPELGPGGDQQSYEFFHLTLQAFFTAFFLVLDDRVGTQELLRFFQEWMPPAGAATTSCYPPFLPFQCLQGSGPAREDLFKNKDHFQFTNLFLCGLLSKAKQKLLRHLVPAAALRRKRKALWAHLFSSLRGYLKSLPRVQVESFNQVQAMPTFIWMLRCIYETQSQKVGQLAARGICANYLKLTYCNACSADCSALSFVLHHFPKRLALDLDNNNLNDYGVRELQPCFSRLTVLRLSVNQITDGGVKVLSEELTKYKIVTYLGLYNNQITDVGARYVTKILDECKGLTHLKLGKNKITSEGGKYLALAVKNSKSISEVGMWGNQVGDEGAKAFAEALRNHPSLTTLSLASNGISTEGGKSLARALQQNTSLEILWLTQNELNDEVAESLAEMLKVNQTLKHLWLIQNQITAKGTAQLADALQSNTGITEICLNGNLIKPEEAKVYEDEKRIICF
Kind of test: blockers of NOD1 pathway activity – revised, SAR follow-up (AID 2333). The format is functional.

For test [10], the target named is G-protein coupled receptor 35 (Homo sapiens, UniProt Q9HC97). Kind of test: inhibition of zaprinast-stimulated GPR35 beta-arrestin translocation – imaging, U2OS, beta-arrestin-GFP, zaprinast agonist, primary screen (AID 2058).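 Further: antagonist potency meaning inhibition of agonist-induced arrestin redistribution.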 It is filed as functional.
The nature of test [11]: luciferase reporter signal suppression in cells – H4 neuroglioma cells, luminescence, dose response (AID 1990). It is filed as functional, cell-based. In general terms: A reporter such as luciferase makes a cellular process visible.
Test [12] can be described thus: Luminescence Cell-Based Dose Response HTS to Identify Inhibitors of 5'UTR Stem-Loop Driven Prion Protein mRNA Translation in H4 Neuroglioblastoma Cells. [Related pubchem assays: 1827 (Project Summary), 1813 (Primary HTS)]. The format is functional.
Test [13] can be described thus: alpha-synuclein stem-loop luciferase translation blockers – H4 neuroglioma cells, luminescence, confirmation (AID 1988). It is filed as functional, cell-based.
The target of test [14] is G-protein coupled receptor 55 (Homo sapiens, UniProt Q9Y2T6). Kind of test: inhibition of LPI-stimulated GPR55 beta-arrestin translocation – imaging, U2OS, beta-arrestin-GFP, LPI agonist, primary screen (AID 2013).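 Further: antagonist potency measured as reduced agonist-driven arrestin aggregation.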 It is filed as functional.
The next test has as its target Troponin, cardiac muscle (Homo sapiens, UniProt P19429+P45379+P63316). Kind of test: Fluorescence-based biochemical high throughput dose response assay for activators of the calcium sensitivity of cardiac Regulated Thin Filaments (RTF). [Related pubchem assays (depositor defined):AID493008, AID493018, AID504382, AID504383]. The format is protein-complex assay.

Calls of active or inactive are those of the source.

One may read the EC50 as the concentration needed to bring the measured effect to its halfway point. For orientation: IC50 means the concentration at which inhibition is half-maximal. As a reminder, the AC50 is the concentration at which the activity in the assay is half-maximal. Regarding `Cc1ccccc1NC(=O)/C=C/c1ccc([N+](=O)[O-])s1`, the EC50 in test [1] was 1.6 µM (active); in [2], 1.16 µM (active). Further, the “Absolute IC50 (CHOP)” value in test [3] was determined as 10 µM. The IC50 with CHO is 2.22 µM (active); at Beta Lactamase, 13.7 µM (inactive). Besides, in the test on INS1, the AC50 is 6.17 µM (active).

As to `O=C(Nc1ccccc1F)C(=Cc1sc(N2CCOCC2)nc1-c1ccccc1)C(=O)Nc1ccccc1F`, the EC50 was 11.9 µM (active) in [1], 9.63 µM (active) in [2] and > 260 µM (inactive) in [4]. Also, the values for the AC50 in the test on HeLa and at ORF 73 were 292 µM (active) and 16.4 µM (active), respectively.

Take `Fc1cccc2sc(Nc3nnc(-c4ccco4)o3)nc12`: the EC50 is 79.4 µM (active) in [5]; 0.632 µM (active) in test [6]; > 150 µM (not active) at Streptokinase A; 2.43 µM (active) in [7]; 11.2 µM (active) with Streptococcus. In addition, the IC50 on Beta-galactosidase was > 66.6 µM (inactive).

For the compound `Cc1oc(-c2ccccc2Cl)nc1CSc1nc2c(c(=O)[nH]1)CCCC2`, the EC50 in [8] is 0.73 µM (active). The IC50 at Tumor necrosis factor was 3.09 µM (active); in test [9] it was 5.75 µM (active).

As for `Oc1ccc(/C=N/Nc2nc(-c3ccccc3F)nc3ccccc23)c(O)c1`, the results for the IC50 in test [10] and in [14] were 3.08 µM (active) and 1.47 µM (active), respectively. Further, the EC50 in test [11] was 23.2 µM (active); in test [12], 18.4 µM (active); in test [13] it was 6.7 µM (active).

With `N=c1c2c(ncn1Cc1ccco1)Oc1cc(O)ccc1C2c1ccccc1` (configuration not stated), in [14], the IC50 is 1.2 µM (active). Besides, on Troponin, cardiac muscle, the EC50 is > 71.4 µM (inactive).

Values taken from ChEMBL document CHEMBL1201862, “PubChem BioAssay data set” (2004).
